experiment: In Vitro CaMKIIδ Activity Assay: The inhibition of CaMKII activity was evaluated using a coupled assay measuring ADP released following ATP hydrolysis and phosphor-transfer to the peptide substrate AC3 (KKALHRQETVDAL; SEQ ID NO: 1) (1). A full length, C-terminal His/Gln tagged CaMKIIδ construct was used.

| SMILES | IC50 |
| --- | --- |
| Cc1ccc2c(c1)[nH]c1nccc(-c3cccc(NCCN)c3)c12 | < 0.1 µM |
| C(=C\c1ccnc2[nH]c3ccccc3c12)/CN1CCNCC1 | in the range around 55 µM |
| c1ccc2c(c1)[nH]c1nccc(-c3cnc(N4CCNCC4)s3)c12 | in the range around 55 µM |
| c1ccc2c(c1)[nH]c1nccc(-c3cnn(C4CCNCC4)c3)c12 | in the range around 55 µM |
| Cc1ccc2[nH]c3nccc(-c4cccc(NCCN)c4)c3c2c1 | < 0.1 µM |
| COc1ccc2c(c1)[nH]c1nccc(-c3cccc(NCCN)c3)c12 | < 0.1 µM |
| c1ccc2c(c1)[nH]c1nccc(-n3cc(C4CCNCC4)nn3)c12 | in the range around 55 µM |
| NCCNc1cccc(-c2ccnc3[nH]c4ccc(Cl)cc4c23)c1 | < 0.1 µM |
| C(=C/c1ccnc2[nH]c3ccccc3c12)/CN1CCNCC1 | in the range around 55 µM |

Now from value to compound:

| IC50 | SMILES |
| --- | --- |
| < 0.1 µM | NCCCOc1cccc(-c2ccnc3[nH]c4ccccc4c23)c1 |
| in the range around 55 µM | Clc1cncc(-c2ccnc3[nH]c4ccccc4c23)c1 |
| in the range around 55 µM | NCc1cccc(-c2ccnc3[nH]c4ccccc4c23)c1 |
| in the range around 55 µM | Cc1nn(C2CCNCC2)cc1-c1ccnc2[nH]c3ccccc3c12 |
| in the range around 55 µM | c1cc(-c2ccnc3[nH]c4ccccc4c23)cc(-n2ccnc2)c1 |
| < 0.1 µM | c1cc(-c2ccnc3[nH]c4ccccc4c23)nc(N2CCNCC2)c1 |
| < 0.1 µM | NCCOc1cccc(-c2ccnc3[nH]c4ccccc4c23)c1 |
| < 0.1 µM | NCCNc1cccc(-c2ccnc3[nH]c4ccccc4c23)c1 |
| < 0.1 µM | NCCCNc1cccc(-c2ccnc3[nH]c4ccccc4c23)c1 |
| in the range around 55 µM | Clc1cnccc1-c1ccnc2[nH]c3ccccc3c12 |
